Laboratory results from PubChem BioAssay (NCI).
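Grown in 96-well plates, cells were treated for 48 hours with each compound at five concentrations. Insufficient inhibition: endpoint recorded as highest concentration tested. TGI marks complete inhibition of growth.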

Assays:
Assay in all cases: DTP human tumour cell line panel, 48 h
OVCAR-5 ovarian = system: OVCAR-5 ovarian
RPMI-8226 leukemia = system: RPMI-8226 leukemia
KM12 colon = system: KM12 colon
SK-MEL-28 melanoma = system: SK-MEL-28 melanoma
HCC-2998 colon = system: HCC-2998 colon
CCRF-CEM leukemia = system: CCRF-CEM leukemia
HOP-62 NSCLC = system: HOP-62 NSCLC
M14 melanoma = system: M14 melanoma
UACC-62 melanoma = system: UACC-62 melanoma
A549 NSCLC = system: A549 NSCLC
SF-539 CNS = system: SF-539 CNS
IGROV1 ovarian = system: IGROV1 ovarian
SK-MEL-2 melanoma = system: SK-MEL-2 melanoma
UO-31 renal = system: UO-31 renal
HL-60(TB) leukemia = system: HL-60(TB) leukemia
MALME-3M melanoma = system: MALME-3M melanoma
UACC-257 melanoma = system: UACC-257 melanoma
DMS 114 small cell lung = system: DMS 114 small cell lung
COLO 205 colon = system: COLO 205 colon
786-0 renal = system: 786-0 renal
TK-10 renal = system: TK-10 renal
SNB-19 CNS = system: SNB-19 CNS
EKVX NSCLC = system: EKVX NSCLC
A498 renal = system: A498 renal
OVCAR-3 ovarian = system: OVCAR-3 ovarian
HCT-116 colon = system: HCT-116 colon
NCI-H460 lung = system: NCI-H460 lung
KM20L2 colon = system: KM20L2 colon
HCT-15 colon = system: HCT-15 colon
SK-OV-3 ovarian = system: SK-OV-3 ovarian
HT29 colon = system: HT29 colon
M19-MEL melanoma = system: M19-MEL melanoma
NCI-H522 lung = system: NCI-H522 lung
OVCAR-8 ovarian = system: OVCAR-8 ovarian
SW-620 colon = system: SW-620 colon
CAKI-1 renal = system: CAKI-1 renal
OVCAR-4 ovarian = system: OVCAR-4 ovarian
RXF 393 renal = system: RXF 393 renal
LOX IMVI melanoma = system: LOX IMVI melanoma
K-562 leukemia = system: K-562 leukemia
SF-295 CNS = system: SF-295 CNS
SF-268 CNS = system: SF-268 CNS
SNB-78 CNS = system: SNB-78 CNS
ACHN renal = system: ACHN renal
SN12C renal = system: SN12C renal
MOLT-4 leukemia = system: MOLT-4 leukemia
NCI-H226 lung = system: NCI-H226 lung
SR leukemia = system: SR leukemia
NCI-H23 lung = system: NCI-H23 lung
DMS 273 small cell lung = system: DMS 273 small cell lung
U251 CNS = system: U251 CNS
NCI/ADR-RES ovarian = system: NCI/ADR-RES ovarian
SK-MEL-5 melanoma = system: SK-MEL-5 melanoma
DU-145 prostate = system: DU-145 prostate
MCF7 breast = system: MCF7 breast
MDA-N = system: MDA-N
T-47D breast = system: T-47D breast
MDA-MB-231 breast = system: MDA-MB-231 breast
HOP-92 NSCLC = system: HOP-92 NSCLC
SNB-75 CNS = system: SNB-75 CNS
BT-549 breast = system: BT-549 breast
MDA-MB-435 = system: MDA-MB-435
PC-3 prostate = system: PC-3 prostate
HS 578T breast = system: HS 578T breast

CN(C)c1ccc(C=NC23CC4CC(CC(C4)C2)C3)cc1
TGI (OVCAR-5 ovarian): > 100 µM
TGI (RPMI-8226 leukemia): > 100 µM
TGI (KM12 colon): > 100 µM
TGI (SK-MEL-28 melanoma): > 100 µM
TGI (HCC-2998 colon): > 100 µM
TGI (CCRF-CEM leukemia): > 100 µM
TGI (HOP-62 NSCLC): > 100 µM
TGI (M14 melanoma): > 100 µM
TGI (UACC-62 melanoma): > 100 µM
TGI (A549 NSCLC): > 100 µM
TGI (SF-539 CNS): > 100 µM
TGI (IGROV1 ovarian): > 100 µM
TGI (SK-MEL-2 melanoma): > 100 µM
TGI (UO-31 renal): > 100 µM
TGI (HL-60(TB) leukemia): > 100 µM
TGI (MALME-3M melanoma): > 100 µM
TGI (UACC-257 melanoma): > 100 µM
TGI (DMS 114 small cell lung): > 100 µM
TGI (COLO 205 colon): > 100 µM
TGI (786-0 renal): > 100 µM
TGI (TK-10 renal): > 100 µM
TGI (SNB-19 CNS): > 100 µM
TGI (EKVX NSCLC): > 100 µM
TGI (A498 renal): > 100 µM
TGI (OVCAR-3 ovarian): > 100 µM
TGI (HCT-116 colon): > 100 µM
TGI (NCI-H460 lung): > 100 µM
TGI (KM20L2 colon): > 100 µM
TGI (HCT-15 colon): > 100 µM
TGI (SK-OV-3 ovarian): > 100 µM
TGI (HT29 colon): > 100 µM
TGI (M19-MEL melanoma): > 100 µM
TGI (NCI-H522 lung): > 100 µM
TGI (OVCAR-8 ovarian): > 100 µM
TGI (SW-620 colon): > 100 µM
TGI (CAKI-1 renal): > 100 µM
TGI (OVCAR-4 ovarian): > 100 µM
TGI (RXF 393 renal): > 100 µM
TGI (LOX IMVI melanoma): > 100 µM
TGI (K-562 leukemia): > 100 µM
TGI (SF-295 CNS): > 100 µM
TGI (SF-268 CNS): > 100 µM
TGI (SNB-78 CNS): > 100 µM
TGI (ACHN renal): > 100 µM
TGI (SN12C renal): > 100 µM
TGI (MOLT-4 leukemia): > 100 µM
TGI (NCI-H226 lung): > 100 µM
TGI (SR leukemia): > 100 µM
TGI (NCI-H23 lung): > 100 µM
TGI (DMS 273 small cell lung): > 100 µM
TGI (U251 CNS): > 100 µM

O=Cc1ccc(-c2nccc3c2[nH]c2ccccc23)o1
TGI (NCI/ADR-RES ovarian): > 100 µM
TGI (OVCAR-5 ovarian): > 100 µM
TGI (SK-MEL-5 melanoma): > 100 µM
TGI (RPMI-8226 leukemia): > 100 µM
TGI (KM12 colon): > 100 µM
TGI (SK-MEL-28 melanoma): > 100 µM
TGI (HCC-2998 colon): > 100 µM
TGI (CCRF-CEM leukemia): > 100 µM
TGI (HOP-62 NSCLC): > 100 µM
TGI (M14 melanoma): > 100 µM
TGI (UACC-62 melanoma): > 100 µM
TGI (A549 NSCLC): > 100 µM
TGI (SF-539 CNS): > 100 µM
TGI (DU-145 prostate): > 100 µM
TGI (IGROV1 ovarian): > 100 µM
TGI (MCF7 breast): > 100 µM
TGI (SK-MEL-2 melanoma): > 100 µM
TGI (UO-31 renal): > 100 µM
TGI (HL-60(TB) leukemia): > 100 µM
TGI (MALME-3M melanoma): > 100 µM
TGI (MDA-N): > 100 µM
TGI (T-47D breast): > 100 µM
TGI (UACC-257 melanoma): > 55.9 µM
TGI (COLO 205 colon): > 100 µM
TGI (786-0 renal): > 100 µM
TGI (MDA-MB-231 breast): > 100 µM
TGI (TK-10 renal): > 100 µM
TGI (HOP-92 NSCLC): 98.6 µM
TGI (SNB-19 CNS): > 100 µM
TGI (EKVX NSCLC): > 100 µM
TGI (SNB-75 CNS): > 100 µM
TGI (A498 renal): 1.46 µM
TGI (OVCAR-3 ovarian): > 100 µM
TGI (HCT-116 colon): > 100 µM
TGI (BT-549 breast): > 100 µM
TGI (NCI-H460 lung): > 100 µM
TGI (HCT-15 colon): > 100 µM
TGI (SK-OV-3 ovarian): > 100 µM
TGI (HT29 colon): > 100 µM
TGI (NCI-H522 lung): > 100 µM
TGI (OVCAR-8 ovarian): > 100 µM
TGI (SW-620 colon): > 100 µM
TGI (CAKI-1 renal): 41.4 µM
TGI (OVCAR-4 ovarian): > 100 µM
TGI (RXF 393 renal): > 81.9 µM
TGI (LOX IMVI melanoma): > 56.2 µM
TGI (K-562 leukemia): > 100 µM
TGI (MDA-MB-435): > 100 µM
TGI (SF-295 CNS): 51.2 µM
TGI (SF-268 CNS): > 100 µM
TGI (ACHN renal): > 100 µM
TGI (SN12C renal): > 100 µM
TGI (PC-3 prostate): > 100 µM
TGI (MOLT-4 leukemia): > 100 µM
TGI (NCI-H226 lung): 9.86 µM
TGI (SR leukemia): > 100 µM
TGI (NCI-H23 lung): > 100 µM
TGI (U251 CNS): > 100 µM
TGI (HS 578T breast): > 100 µM

O=S(=O)(O)c1ccc2c(N=Nc3cccc4ccccc34)c(O)c(S(=O)(=O)O)cc2c1
TGI (NCI/ADR-RES ovarian): > 100 µM
TGI (OVCAR-5 ovarian): > 100 µM
TGI (SK-MEL-5 melanoma): > 100 µM
TGI (RPMI-8226 leukemia): > 100 µM
TGI (KM12 colon): > 100 µM
TGI (SK-MEL-28 melanoma): > 100 µM
TGI (HCC-2998 colon): > 100 µM
TGI (CCRF-CEM leukemia): > 100 µM
TGI (HOP-62 NSCLC): > 100 µM
TGI (M14 melanoma): > 100 µM
TGI (UACC-62 melanoma): > 100 µM
TGI (A549 NSCLC): > 100 µM
TGI (SF-539 CNS): > 100 µM
TGI (DU-145 prostate): > 100 µM
TGI (IGROV1 ovarian): > 100 µM
TGI (MCF7 breast): > 100 µM
TGI (SK-MEL-2 melanoma): > 100 µM
TGI (UO-31 renal): > 100 µM
TGI (HL-60(TB) leukemia): > 100 µM
TGI (MALME-3M melanoma): > 100 µM
TGI (MDA-N): > 100 µM
TGI (T-47D breast): > 100 µM
TGI (UACC-257 melanoma): > 100 µM
TGI (COLO 205 colon): > 100 µM
TGI (786-0 renal): > 100 µM
TGI (MDA-MB-231 breast): > 100 µM
TGI (TK-10 renal): > 100 µM
TGI (HOP-92 NSCLC): > 100 µM
TGI (SNB-19 CNS): > 100 µM
TGI (EKVX NSCLC): > 100 µM
TGI (SNB-75 CNS): > 100 µM
TGI (A498 renal): > 100 µM
TGI (OVCAR-3 ovarian): > 100 µM
TGI (HCT-116 colon): > 100 µM
TGI (BT-549 breast): > 100 µM
TGI (NCI-H460 lung): > 100 µM
TGI (HCT-15 colon): > 100 µM
TGI (SK-OV-3 ovarian): > 100 µM
TGI (HT29 colon): > 100 µM
TGI (NCI-H522 lung): > 100 µM
TGI (OVCAR-8 ovarian): > 100 µM
TGI (SW-620 colon): > 100 µM
TGI (CAKI-1 renal): > 100 µM
TGI (OVCAR-4 ovarian): > 100 µM
TGI (RXF 393 renal): > 100 µM
TGI (LOX IMVI melanoma): > 100 µM
TGI (K-562 leukemia): > 100 µM
TGI (MDA-MB-435): > 100 µM
TGI (SF-295 CNS): > 100 µM
TGI (SF-268 CNS): > 100 µM
TGI (ACHN renal): > 100 µM
TGI (SN12C renal): > 100 µM
TGI (PC-3 prostate): > 100 µM
TGI (MOLT-4 leukemia): > 100 µM
TGI (NCI-H226 lung): > 100 µM
TGI (SR leukemia): > 100 µM
TGI (NCI-H23 lung): > 100 µM
TGI (U251 CNS): > 100 µM
TGI (HS 578T breast): > 100 µM
